System: HEK293 cells
Assay: CLS in human cells, PrestoBlue outgrowth assay (HEK293)
Type: cell-based
Description: Human embryonic kidney 293 (HEK293) cells (ATCC, Manassas, Virginia, United States of America), lung epithelial (A549) cells (ATCC, Manassas, Virginia, United States of America) and fibroblast (IMR90) cells (ATCC, Manassas, Virginia, United States of America) were cultured in the standard D10 medium, consisting of high-glucose DMEM (HyClone, Cytiva, Marlborough, Massachusetts, USA) supplemented with 10% Fetal Bovine Serum (FBS) (Gibco™, ThermoFisher Scientific, Waltham, Massachusetts, USA) and 1% Penicillin Streptomycin Solution (Gibco™, ThermoFisher Scientific, Waltham, Massachusetts, USA). All cells were cultured in a humidified incubator with 5% CO2 at 37° C.
The seeding, washing and trypsinization process was performed similarly to that for the crystal violet assay. 80,000 cells were seeded in a 96-well culture plate with or without compound treatment. At different age time points after seeding, floating dead cells were aspirated with exhausted D10 medium, cells were gently washed with 1×PBS to remove D10 medium residue and treated with 0.2 mL of 0.25% trypsin. […] After one day of growth in a 37° C. incubator with 5% CO2, the cell number was assessed with PrestoBlue™ Cell Viability Reagent (Invitrogen™, Waltham, Massachusetts, USA) according to the manufacturer's protocol. […] After incubation in a 37° C. incubator with 5% CO2 for 3 to 4 hours, reading was taken with a BioTek Synergy MX microplate reader (BioTek, Winooski, Vermont, United States) at excitation and emission wavelengths of 560 nm and 590 nm, respectively.
PrestoBlue (PB) is a resazurin-based reagent used to detect cell viability and traces of cytotoxicity in the medium. It produces results that can be detected both colorimetrically and fluorometrically. […] The resazurin component is reduced to form resorufin by live cells, resulting in a visible change from blue colour to red colour in the reagent, at the same time developing fluorescence, which can be easily detected by a microplate reader. […] The PB assay was easy to perform as the reagent is a commercially available as ready-to-use solution.

OC[C@H]1O[C@H](CO)[C@@H](O)[C@@H]1O [2,5-AM, 2,5-anhydro-D-mannitol] was tested, and the “more viable cells compared to the untreated group” value (2.5 mM, HEK293) was 76.31%, the “more surviving cells relative to the untreated group” value (5 mM, HEK293) was 123.7% and the “CLS of HEK293 cells by outgrowth method” value (different concentrations, Day 4 normalized to Day 1 (FIG. 19)) was “Trends of lifespan extension”.
